According to US7208572B2, “Leptin-related peptides” (Albany Medical College, priority 1998, dated 2007):
Marks after values point to notes of the source that are not given here. Square brackets hold non-standard residues; d marks the D form. Ends that are not written are not given here. Peptide text beside a SMILES is read from it.

B1: mouse leptin: recombinant mouse leptin used as positive control in binding and SEAP assays (protein, listed as Mus musculus)
chain: MCWRPLCRFLWLWSYLSYVQAVPIQKVQDDTKTLIKTIVTRINDISHTQSVSAKQRVTGLDFIPGLHPILSLSKMDQTLAVYQQVLTSLPSQNVLQIANDLENLRDLLHLLAFSKSCSLPQTSGLQKPESLDGVLEASLYSTEVVALSRLQGSLQDILQQLDVSPEC

Columns and labels:
[1] = Epitope mapping: body weight and food intake in female C57BL/6J ob/ob mice, 7 daily ip injections; format: in vivo, mouse; conditions: for Cumulative food intake / Percent heavier (+) or lighter (−) than initial weight / Weight gain (+) or loss (−): 1 mg/day ip; for Cumulative food intake / Percent heavier (+) or lighter (−) than initial weight / Weight gain (+) or loss (−) / Reduction of food intake / Food intake vs vehicle: 7 days; for Reduction of food intake / Weight loss: 1 mg daily; for Weight loss: after 7 days
Protocol: Animal procedures. Feeding and weighing schedules, as well as peptide administration protocols, are as described in EXAMPLE 8, supra.
Statistical analysis. Changes in body weight and differences in food intake between peptide-treated and vehicle-injected control mice were analyzed by analysis of variance (ANOVA) and considered significant when P<0.05.
Female ob/ob mice (n=6 per group) were given a single ip injection of 0.2 ml of vehicle (PBS, pH 7.2) or leptin-related synthetic peptide amide in 0.2 ml PBS for 7 consecutive days. Daily changes in body weight compared to pretreatment weights in both vehicle-injected control and peptide-treated mice are shown in FIG. 4. […] There was no evidence of weight loss in response to peptide treatment.

[2] = 28-day ip study of body weight and food intake in female C57BL/6J ob/ob mice; format: in vivo, mouse; conditions: 1 mg per day ip, 28 days
Excerpt: In order to examine this possibility, six overlapping peptide amides, which corresponded to amino acid residues 106 to 167 of mouse leptin, were synthesized and their effects on body weight and food intake in female C57BL/6J ob/ob mice were subsequently assessed.

[3] = Short-term (7-day) toxicity study in female C57BLK/6-m wild type mice; conditions: 1 mg/day ip, 7 days
Protocol: Methods: OB3, [D-Leu-4]-OB3, hOB3 or vehicle was administered intraperitoneally once daily (1 mg/day, 7 days) to groups (n=6 mice per group) of C57BLK/6-m wild type mice of the same age as their obese (ob/ob or db/db) counterparts. The effects of the peptides on body weight gain, food and water intake, glucose homeostasis, serum insulin levels, and ability to thermoregulate were examined.

[4] = 12-day ip study of body weight gain and food intake in female C57BL/6J ob/ob mice; format: in vivo, mouse; conditions: 1 mg/day ip, 12 days
Protocol: The graphs show changes in body weight (expressed as percent of initial weight) and food intake (expressed as mg/gm body weight/mouse) for mice given vehicle or synthetic leptin-related peptide OB3 (1 mg/day, ip, 12 days).
Mice were injected with leptin-related synthetic peptide (1 mg/g body weight, ip) or vehicle daily for 12 consecutive days. Each bar represents mean±SEM food consumption per mouse (n=6 mice per group) after 3, 6, 9 and 12 days of treatment.
Each value represents mean±SEM change in body weight for a group of 6 mice.
Mice were injected with leptin-related synthetic peptide (1 mg/g body weight, ip) or vehicle for 12 consecutive days. Each bar and vertical line represents mean±food consumption per mouse (n=6 mice per group) after 3, 6, 9 and 12 days of treatment.

OB-Ra = target: T1, OB-Ra (Mus musculus, UniProt P48356); experiment: Inhibition of AP-OB fusion protein binding by COS-7 cells transfected with OB receptor; conditions: 30 nM unlabelled mouse leptin
T1 construct: expressed in transfected cells; host or cells: COS-7
T1 sequence (P48356 22-894 isoform P48356-2 limits assumed): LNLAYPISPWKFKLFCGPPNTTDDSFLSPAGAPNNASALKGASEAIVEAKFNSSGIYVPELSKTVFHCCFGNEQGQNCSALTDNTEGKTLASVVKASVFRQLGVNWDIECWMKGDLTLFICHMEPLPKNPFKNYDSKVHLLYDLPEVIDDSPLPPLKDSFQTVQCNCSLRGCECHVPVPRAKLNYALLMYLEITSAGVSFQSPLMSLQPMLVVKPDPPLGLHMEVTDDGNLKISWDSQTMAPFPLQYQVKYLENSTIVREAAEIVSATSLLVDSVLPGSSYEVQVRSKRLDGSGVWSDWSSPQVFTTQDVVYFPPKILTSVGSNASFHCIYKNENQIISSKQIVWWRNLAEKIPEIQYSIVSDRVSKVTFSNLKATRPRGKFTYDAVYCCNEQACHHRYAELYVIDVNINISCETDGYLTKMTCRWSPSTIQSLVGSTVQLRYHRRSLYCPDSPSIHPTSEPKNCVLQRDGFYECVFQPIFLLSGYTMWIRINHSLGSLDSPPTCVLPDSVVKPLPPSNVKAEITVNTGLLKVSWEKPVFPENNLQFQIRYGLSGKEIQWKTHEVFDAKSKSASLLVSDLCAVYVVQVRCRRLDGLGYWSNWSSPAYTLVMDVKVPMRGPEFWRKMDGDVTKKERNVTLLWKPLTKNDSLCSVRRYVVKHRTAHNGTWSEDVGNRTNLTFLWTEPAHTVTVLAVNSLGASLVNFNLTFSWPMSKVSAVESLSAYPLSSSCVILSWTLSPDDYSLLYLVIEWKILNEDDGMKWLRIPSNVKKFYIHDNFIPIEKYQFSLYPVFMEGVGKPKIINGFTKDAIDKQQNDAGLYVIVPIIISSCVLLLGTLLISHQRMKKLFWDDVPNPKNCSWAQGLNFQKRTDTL
Excerpt: (§1) Initial experiments to determine the mechanism of action of LEP(116–130) utilized two highly sensitive in vitro bioassays routinely used to assess leptin binding and receptor activation (see e.g., White, et al., 1997. Proc. Natl. Acad. Sci. U.S.A. 94: 10657–10662). An alkaline phosphatase (“AP”)-leptin (“OB”) fusion protein (“AP-OB”) was used to measure inhibition of leptin binding in the absence or presence of recombinant mouse leptin (positive control) or peptide, by COS-7 cells transfected with the long (signaling) form of the mouse OB receptor (“OB-RL”). Signal transduction assays were done in GT1–7 cells cotransfected with AP reporter and OB-RL constructs. Secreted alkaline phosphatase (“SEAP”) activity in response to stimulation with mouse leptin or peptide was measured by chemiluminescence.
Two days after transfection, COS-7 cells were incubated with 1 nm human AP-OB fusion protein and bound AP activity was determined by chemiluminescence using the Great EscApe alkaline phosphatase detection kit as described by the manufacturer (CLON-TECH).
COS-7 cells were transfected with expression vector for OB-Ra. Two days after transfection, the cells were incubated with 1 nM human AB-OB fusion protein in the absence or presence of 30 nM mouse leptin, 300 μM LEP(116–130) or LEP(146–160). Bound AP activity was determined as has been described. See., e.g., Kamohara et al., 1997 Nature 389: 374–377.

OB-Rb = target: T2, OB-Rb (Mus musculus, UniProt P48356); experiment: SEAP reporter gene signal transduction assay in GT1–7 cells cotransfected with HRRE-SEAP and OB-Rb; format: cell-based; conditions: 6 nM mouse leptin, 24 h
T2 construct: full-length leptin receptor (OB-Rb), the receptor isoform predominantly expressed in the hypothalamus; expressed in transfected cells; host or cells: GT1-7
T2 sequence (P48356 22-1162): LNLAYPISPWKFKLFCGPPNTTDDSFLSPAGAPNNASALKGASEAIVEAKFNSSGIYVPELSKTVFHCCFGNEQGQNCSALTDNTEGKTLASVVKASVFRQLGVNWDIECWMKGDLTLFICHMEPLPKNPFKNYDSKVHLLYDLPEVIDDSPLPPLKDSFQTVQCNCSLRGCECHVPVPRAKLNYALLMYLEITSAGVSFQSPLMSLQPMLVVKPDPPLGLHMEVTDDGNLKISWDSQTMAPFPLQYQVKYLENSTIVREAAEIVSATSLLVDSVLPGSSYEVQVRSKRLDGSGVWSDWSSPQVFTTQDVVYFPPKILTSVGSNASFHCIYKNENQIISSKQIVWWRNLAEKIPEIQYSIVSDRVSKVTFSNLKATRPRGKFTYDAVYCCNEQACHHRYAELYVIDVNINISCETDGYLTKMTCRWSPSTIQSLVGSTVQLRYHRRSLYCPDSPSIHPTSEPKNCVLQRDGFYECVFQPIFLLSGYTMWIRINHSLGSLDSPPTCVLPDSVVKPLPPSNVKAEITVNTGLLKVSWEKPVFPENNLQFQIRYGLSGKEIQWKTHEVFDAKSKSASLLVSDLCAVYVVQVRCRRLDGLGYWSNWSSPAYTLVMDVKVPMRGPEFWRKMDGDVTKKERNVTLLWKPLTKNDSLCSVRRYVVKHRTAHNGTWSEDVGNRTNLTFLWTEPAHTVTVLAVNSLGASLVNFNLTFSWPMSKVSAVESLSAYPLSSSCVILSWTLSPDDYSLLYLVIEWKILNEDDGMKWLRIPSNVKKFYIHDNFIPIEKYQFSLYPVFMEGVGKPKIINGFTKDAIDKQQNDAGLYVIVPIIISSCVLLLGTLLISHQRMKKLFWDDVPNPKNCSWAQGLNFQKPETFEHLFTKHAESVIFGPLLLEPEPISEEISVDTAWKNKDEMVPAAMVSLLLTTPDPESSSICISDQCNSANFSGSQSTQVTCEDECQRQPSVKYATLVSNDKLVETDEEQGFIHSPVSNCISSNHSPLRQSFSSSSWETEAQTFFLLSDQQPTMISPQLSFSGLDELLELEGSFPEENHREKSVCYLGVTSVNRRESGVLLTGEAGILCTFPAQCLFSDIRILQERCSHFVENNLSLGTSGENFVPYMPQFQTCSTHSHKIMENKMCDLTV
Excerpt: as §1
Two days after transfection, the cells were stimulated with mouse leptin or leptin-related synthetic peptides for 24 hours. Growth media were harvested and SEAP activity was determined by chemiluminescence as described for AP-OB binding studies.
COS-7 and GT1–7 cells were cultured in DMEM supplemented with 10% fetal bovine serum, and transfected by the lipofectamine method. […] Supernatants were collected and SEAP reporter activities were measured by chemiluminescence using the GreatEscApe alkaline phosphatase detection kit as described by the manufacturer (CLONTECH). […]

Molecule | Cumulative food intake [1] | Percent heavier (+) or lighter (−) than initial weight [1] | Weight gain (+) or loss (−) [1] | Weight gain and food intake vs vehicle [2] | Toxic effects [3] | further results
D I L Q Q L D V S P E C (DILQQLDVSPEC; not fully specified (N-terminus)) [LEP(156–167)] | 40.3 ± 0.6 gm/mouse | +22.6% | +5.7 g | continued to consume food and gain weight at a rate comparable to vehicle-injected control mice | – | –
E A S L Y S T E V V A L S R L (EASLYSTEVVALSRL; not fully specified (N-terminus)) [LEP(136–150)] | 38.7 ± 1.6 gm/mouse | +25.6% | +5.4 g | continued to consume food and gain weight at a rate comparable to vehicle-injected control mice | – | –
SCSLPQT-NH2 [OB3, Ser-Cys-Ser-Leu-Pro-Gln-Thr] | – | – | – | – | no apparent toxic effects | –
CC(C)C[C@@H](NC(=O)[C@H](CO)NC(=O)[C@H](CS)NC(=O)[C@@H](N)CO)C(=O)N1CCC[C@H]1C(=O)N[C@@H](CCC(N)=O)C(=O)N[C@H](C(N)=O)[C@@H](C)O [[D-Leu-4]-OB3, Ser-Cys-Ser-[D-Leu]-Pro-Gln-Thr] (H-SCS[dL]PQT-NH2) | – | – | – | – | no apparent toxic effects | –
SCHLPWA-NH2 [hOB3, S C H L P W A] | – | – | – | – | no apparent toxic effects | –
R I N D I S H T Q S V S A K Q (RINDISHTQSVSAKQ) [LEP(41–55)] | 39.4 ± 1.5 gm/mouse | +27.6% | +5.9 g | – | – | Body weight gain and food intake vs vehicle [4]: not significantly (i.e., P>0.05) different
Q K P E S L D G V L E A S L Y (QKPESLDGVLEASLY; not fully specified (N-terminus)) [LEP(126–140)] | 34.7 ± 1.3^b gm/mouse | −10.2% | −6.0^a g | significantly (P<0.01) restricted weight gain and food intake | – | Reduction of food intake [1]: 14.3%; Weight loss [1]: 10.2%; Food intake vs vehicle [1]: significantly (P=0.01) less than vehicle-injected control mice
D L L H L L A F S K S C S L P (DLLHLLAFSKSCSLP) [LEP(106–120)] | 34.5 ± 1.1^b gm/mouse | −12.0% | −6.1^a g | significantly (P<0.01) restricted weight gain and food intake | – | Reduction of food intake [1]: 14.8%; Weight loss [1]: 12.0%; Food intake vs vehicle [1]: significantly (P=0.01) less than vehicle-injected control mice
B1 | – | – | – | – | – | Competition of bound AP-OB (OB-Ra): efficiently competed; Increase in SEAP activity (OB-Rb): 11 fold
